Results reported in patent US20230348394A1, “COMPOSITIONS AND METHODS FOR TREATING MUSCULAR DYSTROPHIES” (The Regents of the University of California, priority 2020, published 2023).

What was measured:
[1] = Half-life analysis in CD-1 mouse plasma; type: in vitro ADME, CD-1 mice; details: 37° C.
Method: Half-life analysis was performed by Eurofins Panlabs Inc. using 1 μM of compound with a final DMSO concentration of 0.5%. PBS or plasma from CD-1 mice was pre-warmed to 37° C. for 5 mins before addition of the test compounds and continued incubation at 37° C. At 0, 30, 60, 120, 240, and 1440 mins an aliquot of solution containing compounds was mixed with acetonitrile/methanol, mixed, and centrifuged. The supernatants were used for HPLC-MS/MS analysis.

mdx myotubes = test: Membrane stability assay (creatine kinase release after osmotic shock); type: cell-based, murine; details: for CK release after osmotic shock: 5 μM
Method: The membrane stability assay was modified from previously described methods. The solutions for osmotic shock were prepared from a base solution containing 5 mM HEPES, 5 mM KCl, 1 mM MgCl2, 5 mM NaCl, 1.2 mM CaCl2), and 1 mM glucose. Sucrose was added to the base solutions to reach osmolarities of 50, 80, 100, 280, and 300 mosmol. The actual osmolarity was determined using a VAPRO vapor pressure osmometer (Wescor Inc.) Myotubes were treated for 48 hours and at day 4 of differentiation were subjected to 20 mins of osmotic shock at 37° C. using 28.5 to 223.5 milliosmole (mosmol) solutions. The supernatant was collected and centrifuged to separate cell debris. Adherent cells were trypsinized and pelleted before lysis with water and 3 freeze-thaw cycles. The Creatine Kinase Assay (Sekisui Diagnostics) was used to measure creatine kinase (CK) levels in both the supernatant and lysate fractions. In a 96-well plate, 4 μl of each sample and 140 μl of reagent was loaded per well in triplicate. The U/L of CK was calculated as follows: (mOD/min)(total volume in mL)(dilution factor)/(6.22M-lcm-1)(light path in cm)(sample volume in mL). The percent CK release was calculated as follows: CKextracellular/(CKextracellular+CKintracellular)*100.
The assay entails subjecting myotubes to osmotic shock, which causes cell swelling and membrane damage, allowing for intracellular CK to be released from the cell into the surrounding medium (FIG. 5a).
To assess the effect of SSPN knockdown on membrane stability in the absence of any compound treatment, we transfected mdx myotubes with 24 and 48 nM of scramble and SSPN siRNA and subjected the cells to osmotic shock with 45 mosmol solutions. […] We treated mdx myotubes with 10 μM of OT-9 in parallel with 24 nM of scramble or SSPN siRNA for 48 hours prior to osmotic shock and discovered that depletion of SSPN increased the CK release from 6.5% to 8% (FIG. 5d).

SSPN mRNA = test: SSPN gene expression in C2C12, H2K WT and H2K mdx myoblasts; type: cell-based, murine; details: 24 hours, 1, 5 and 10 μM
Method: FIG. 9. OT-9 is effective in multiple myoblast lines. […] Myoblasts were treated for 24 hours with 1, 5, and 10 μM of OT-9 or PC1-36. Gene expression was normalized to β-actin and vehicle-treated cells (0.1% DMSO). Data represents individual replicates and mean value. n=3-6. SSPN, sarcospan; R.U., relative units. *p<0.05, **p<0.01, ***p<0.001, ****p<0.0001.
RNA from myotubes treated for 48 hrs was extracted from cells using Trizol-based (Thermo Fisher Scientific) phase separation, Chomczynski et al., Biotechniques. 1993; 15(3):532-4, 6-7. RNA concentrations were determined using a NanoDrop 1000 (Thermo Fisher Scientific) and 750 ng of RNA in a 20 Id reaction was reverse transcribed using iScript cDNA synthesis (Bio-Rad) with the following cycling conditions: 25° C. for 5 mins, 42° C. for 30 mins, 85° C. for 5 mins. For mouse qPCR, SsoFast EvaGreen Supermix (Bio-Rad), 400 nM of each optimized forward and reverse primer (SSPN F: 5′ […] 3′, SSPN R: 5′ […] 3′, BACT F: 5′ […] 3′, BACT R: 5′ […] 3′), and cDNA corresponding to 37.5 ng RNA were used to amplify cDNA measured by QuantStudio 5 Real-Time PCR System (Thermo Fisher Scientific) with the following reaction conditions: 55° C. for 2 mins, 95° C. for 2 mins, 40 cycles of 95° C. for 10 seconds and 62° C. for 30 seconds, and dissociation stage. […]

half-life at 1 μM [1]: 7.7 h
CK release after osmotic shock (mdx myotubes; 48 hours, 28.5 mosmol solution): did not reduce CK release
CK release after osmotic shock (mdx myotubes; 48 hours, 45, 63 and 223.5 mosmol solutions): significantly reduced CK release
SMILES: CCN(CC)c1ccc2cc(C(=O)Nc3ccc(C(=O)N4CCCCCC4)cc3)c(=O)oc2c1 [OT-9]
CK release (mdx myotubes; 10 μM OT-9 with 24 nM SSPN siRNA, 48 hours): 8%
CK release (mdx myotubes; 10 μM OT-9 with 24 nM scramble siRNA, 48 hours): 6.5%
SSPN mRNA levels in myoblasts (SSPN mRNA): increased SSPN mRNA levels in all myoblast lines
